What was measured:
BCR-NTRK1 BaF3 cells = target: T1, BCR-NTRK1 BaF3 cells (Homo sapiens, UniProt P04629); test: BaF3 BCR-NTRK1 cell proliferation assay (ATPlite); assay type: cell-based; conditions: read-out: Inhibition of Cell Proliferation IC50, BCR/BaF3 TrkA
T1 construct: fused on or other part: P11274 (Breakpoint cluster region protein)
Summary of the method: (§1)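 ATP-based luminescence (ATPlite), read after 10 min at room temperature, served as a proxy for cell number, and IC50 was fitted against compound concentration. Before that, cells were treated for 3 days with an 8-point 1:3 dilution series starting at 10 μM. BaF3 cells were plated at 10,000/well without IL-3, and MV-4-11 cells at 25,000/well.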

CYP2C9 = CYP2C9 (Homo sapiens, UniProt P11712); test: CYP2C9 inhibition (fluorescent substrate MFC); assay type: in vitro ADME; conditions: read-out: Cyp IC50 2C9
Summary of the method: (§2)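 Compounds, serially diluted 1:1 over 10 points in NADPH-regenerating cofactor mix with 5% acetonitrile, were preincubated 10 min at 37 °C, then run with enzyme and substrate at 37 °C (CYP1A2 15 min; CYP2C9 45 min; CYP2C19, CYP2D6 30 min). Product fluorescence gave IC50s.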

CYP3A4(BFC) = CYP3A4(BFC) (Homo sapiens, UniProt P08684); test: CYP3A4(BFC) inhibition; assay type: in vitro ADME; conditions: CYP3A4, substrate BFC; read-out: Cyp IC50 3A4(BFC)
Summary of the method: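 Inhibition of human CYP3A4 with the BFC substrate was measured by fluorescence loss of the metabolized product. Compounds at 100 mM in DMSO were diluted 1 μL into 82 μL acetonitrile, then 11 μL into 204 μL cofactor mix with NADPH regeneration solutions, and serially diluted 1:1 to 10 points. Plates were incubated 30 min at 37° C and read at 409 ex/460 em to obtain IC50.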

BCR-NTRK2 BaF3 cells = target: T2, BCR-NTRK2 BaF3 cells (Homo sapiens, UniProt Q16620); test: BaF3 BCR-NTRK2 cell proliferation assay (ATPlite); assay type: cell-based; conditions: read-out: Inhibition of Cell Proliferation IC50, BCR/BaF3 TrkB
T2 construct: fused on or other part: P11274 (Breakpoint cluster region protein)
Summary of the method: as §1

BCR-NTRK3 BaF3 cells = target: T3, BCR-NTRK3 BaF3 cells (Homo sapiens, UniProt Q16288); test: BaF3 BCR-NTRK3 cell proliferation assay (ATPlite); assay type: cell-based; conditions: read-out: Inhibition of Cell Proliferation IC50, BCR/BaF3 TrkC
T3 construct: fused on or other part: P11274 (Breakpoint cluster region protein)
Summary of the method: as §1

CYP2C19 = CYP2C19 (Homo sapiens, UniProt P33261); test: CYP2C19 inhibition (fluorescent substrate CEC); assay type: in vitro ADME; conditions: read-out: Cyp IC50 2C19
Summary of the method: as §2

Chain of CYP2C19 (P33261 whole entry): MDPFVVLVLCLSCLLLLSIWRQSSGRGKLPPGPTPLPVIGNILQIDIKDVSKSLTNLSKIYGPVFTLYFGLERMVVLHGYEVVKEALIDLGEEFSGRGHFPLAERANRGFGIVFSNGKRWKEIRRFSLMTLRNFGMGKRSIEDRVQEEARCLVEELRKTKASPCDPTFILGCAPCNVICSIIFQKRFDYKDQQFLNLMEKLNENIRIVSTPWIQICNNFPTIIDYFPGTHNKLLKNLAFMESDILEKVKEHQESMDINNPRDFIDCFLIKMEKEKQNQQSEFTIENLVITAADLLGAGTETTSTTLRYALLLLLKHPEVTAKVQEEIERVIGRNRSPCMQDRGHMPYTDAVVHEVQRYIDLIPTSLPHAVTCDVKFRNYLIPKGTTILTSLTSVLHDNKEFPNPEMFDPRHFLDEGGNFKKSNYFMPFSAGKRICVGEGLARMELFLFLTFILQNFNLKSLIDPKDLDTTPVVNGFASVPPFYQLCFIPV
T3 sequence (Q16288 whole entry, the tested form may be a part): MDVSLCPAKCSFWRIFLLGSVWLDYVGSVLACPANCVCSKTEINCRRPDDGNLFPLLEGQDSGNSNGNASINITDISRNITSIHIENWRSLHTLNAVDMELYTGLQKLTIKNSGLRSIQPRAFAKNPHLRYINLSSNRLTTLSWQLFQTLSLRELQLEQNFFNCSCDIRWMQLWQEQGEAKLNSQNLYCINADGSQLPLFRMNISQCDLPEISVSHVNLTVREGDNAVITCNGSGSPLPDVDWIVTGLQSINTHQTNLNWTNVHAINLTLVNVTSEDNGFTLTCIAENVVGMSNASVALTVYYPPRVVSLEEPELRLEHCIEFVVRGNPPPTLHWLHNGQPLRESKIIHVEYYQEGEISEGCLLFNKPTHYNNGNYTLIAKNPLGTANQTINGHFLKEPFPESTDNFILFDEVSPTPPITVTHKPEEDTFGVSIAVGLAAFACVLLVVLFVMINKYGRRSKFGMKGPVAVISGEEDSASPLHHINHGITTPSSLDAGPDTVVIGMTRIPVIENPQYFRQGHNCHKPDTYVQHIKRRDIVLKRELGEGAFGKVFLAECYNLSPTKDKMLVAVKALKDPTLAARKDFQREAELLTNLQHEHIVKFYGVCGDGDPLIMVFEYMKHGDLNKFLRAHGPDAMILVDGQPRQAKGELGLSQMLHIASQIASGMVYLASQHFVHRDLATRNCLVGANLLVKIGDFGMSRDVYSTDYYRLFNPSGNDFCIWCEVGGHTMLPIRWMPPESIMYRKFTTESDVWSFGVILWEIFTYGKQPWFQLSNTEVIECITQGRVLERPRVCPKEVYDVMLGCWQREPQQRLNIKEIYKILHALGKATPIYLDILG
T2 sequence (Q16620 538-807): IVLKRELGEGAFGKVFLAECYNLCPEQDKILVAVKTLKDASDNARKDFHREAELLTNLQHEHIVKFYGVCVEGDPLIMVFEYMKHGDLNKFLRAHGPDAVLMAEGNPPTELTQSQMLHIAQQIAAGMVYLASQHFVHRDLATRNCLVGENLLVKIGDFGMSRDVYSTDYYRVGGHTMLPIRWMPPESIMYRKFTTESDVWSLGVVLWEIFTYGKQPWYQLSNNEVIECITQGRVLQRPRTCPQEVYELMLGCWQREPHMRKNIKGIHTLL
T1 sequence (P04629 510-781): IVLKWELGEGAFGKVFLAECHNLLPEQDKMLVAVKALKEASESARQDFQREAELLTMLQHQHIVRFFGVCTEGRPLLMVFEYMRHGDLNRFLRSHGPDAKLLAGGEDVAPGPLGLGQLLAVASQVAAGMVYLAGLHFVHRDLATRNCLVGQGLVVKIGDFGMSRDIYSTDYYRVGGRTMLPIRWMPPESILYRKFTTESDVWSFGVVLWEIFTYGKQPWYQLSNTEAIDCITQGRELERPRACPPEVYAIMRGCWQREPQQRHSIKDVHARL
Chain of CYP2C9 (P11712 whole entry): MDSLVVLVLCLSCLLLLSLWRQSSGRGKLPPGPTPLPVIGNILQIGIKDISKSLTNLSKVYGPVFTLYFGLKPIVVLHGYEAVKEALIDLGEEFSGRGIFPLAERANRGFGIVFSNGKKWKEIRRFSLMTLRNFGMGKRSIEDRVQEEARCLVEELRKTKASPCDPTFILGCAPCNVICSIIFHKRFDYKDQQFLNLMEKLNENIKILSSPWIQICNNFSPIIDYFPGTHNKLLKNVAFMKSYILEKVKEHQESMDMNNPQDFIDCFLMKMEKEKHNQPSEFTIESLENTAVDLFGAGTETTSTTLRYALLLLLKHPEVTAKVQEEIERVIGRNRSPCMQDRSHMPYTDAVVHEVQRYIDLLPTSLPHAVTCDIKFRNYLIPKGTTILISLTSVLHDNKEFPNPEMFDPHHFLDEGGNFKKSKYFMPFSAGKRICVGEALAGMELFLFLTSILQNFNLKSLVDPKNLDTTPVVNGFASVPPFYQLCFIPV
Chain of CYP3A4(BFC) (P08684 whole entry): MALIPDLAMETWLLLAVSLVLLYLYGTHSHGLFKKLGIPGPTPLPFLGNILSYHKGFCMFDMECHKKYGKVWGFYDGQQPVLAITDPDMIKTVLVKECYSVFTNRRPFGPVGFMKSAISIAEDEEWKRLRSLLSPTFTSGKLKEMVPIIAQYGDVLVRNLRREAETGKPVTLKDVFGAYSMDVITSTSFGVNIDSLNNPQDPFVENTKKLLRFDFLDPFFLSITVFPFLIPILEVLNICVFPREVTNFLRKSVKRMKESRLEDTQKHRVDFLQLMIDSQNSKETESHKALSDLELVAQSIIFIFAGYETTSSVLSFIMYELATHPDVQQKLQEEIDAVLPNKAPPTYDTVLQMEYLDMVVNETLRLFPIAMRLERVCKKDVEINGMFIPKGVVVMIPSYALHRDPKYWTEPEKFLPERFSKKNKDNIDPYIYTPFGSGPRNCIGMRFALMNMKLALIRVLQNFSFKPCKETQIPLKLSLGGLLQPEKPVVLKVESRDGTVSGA

Row | Structure (SMILES) | IC50 (BCR-NTRK1 BaF3 cells) [µM] | IC50 (CYP2C9) [µM] | IC50 (CYP3A4(BFC)) [µM] | IC50 (BCR-NTRK2 BaF3 cells) [µM] | IC50 (BCR-NTRK3 BaF3 cells) [µM] | IC50 (CYP2C19) [µM]
1 | COc1cncc(Nc2ccc(C(=O)c3c[nH]c4ncnc(NCC(F)(F)F)c34)c(F)n2)c1 [Compound P-4103, [2-fluoro-6-[(5-methoxy-3-pyridyl)amino]-3-pyridyl]-[4-(2,2,2-trifluoroethylamino)-7H-pyrrolo[2,3-d]pyrimidin-5-yl]methanone] | < 1 | > 10 | > 10 | > 1 | > 1 | > 10
2 | COc1cncc(Nc2ccc(C(=O)c3c[nH]c4ncnc(NC5CCCCC5)c34)c(F)n2)c1 [Compound P-4104, [4-(cyclohexylamino)-7H-pyrrolo[2,3-d]pyrimidin-5-yl]-[2-fluoro-6-[(5-methoxy-3-pyridyl)amino]-3-pyridyl]methanone] | < 0.1 | > 10 | > 10 | < 0.1 | < 0.1 | 5 to 10
3 | CCCNc1ncnc2[nH]cc(C(=O)c3ccc(Nc4cncc(OC)c4)nc3F)c12 [Compound P-4105, [2-fluoro-6-[(5-methoxy-3-pyridyl)amino]-3-pyridyl]-[4-(propylamino)-7H-pyrrolo[2,3-d]pyrimidin-5-yl]methanone] | < 0.1 | > 10 | > 10 | < 1 | < 1 | > 10
4 | COc1cncc(Nc2ccc(C(=O)c3c[nH]c4ncnc(NC(C)C)c34)c(F)n2)c1 [Compound P-4106, [2-fluoro-6-[(5-methoxy-3-pyridyl)amino]-3-pyridyl]-[4-(isopropylamino)-7H-pyrrolo[2,3-d]pyrimidin-5-yl]methanone] | < 0.1 | < 5 | > 10 | < 0.1 | < 0.01 | < 5
5 | COc1cncc(Nc2ccc(C(=O)c3c[nH]c4ncnc(NC5CC5)c34)c(F)n2)c1 [Compound P-4107, [4-(cyclopropylamino)-7H-pyrrolo[2,3-d]pyrimidin-5-yl]-[2-fluoro-6-[(5-methoxy-3-pyridyl)amino]-3-pyridyl]methanone] | < 0.1 | < 5 | > 10 | < 0.1 | < 0.01 | < 5
6 | CNc1ncnc2[nH]cc(C(=O)c3ccc(Nc4cncc(OC)c4)nc3F)c12 [Compound P-4108, [2-fluoro-6-[(5-methoxy-3-pyridyl)amino]-3-pyridyl]-[4-(methylamino)-7H-pyrrolo[2,3-d]pyrimidin-5-yl]methanone] | < 1 | < 5 | > 10 | < 1 | < 0.1 | < 5
7 | Cc1ccc(Nc2ccc(C(=O)c3c[nH]c4ncnc(NC5CCCCC5)c34)c(F)n2)cn1 [Compound P-4111, [4-(cyclohexylamino)-7H-pyrrolo[2,3-d]pyrimidin-5-yl]-[2-fluoro-6-[(6-methyl-3-pyridyl)amino]-3-pyridyl]methanone] | < 0.01 | 5 to 10 | > 10 | < 0.01 | < 0.01 | 5 to 10
8 | Cc1ccc(Nc2ccc(C(=O)c3c[nH]c4ncnc(NCC(F)(F)F)c34)c(F)n2)cn1 [Compound P-4112, [2-fluoro-6-[(6-methyl-3-pyridyl)amino]-3-pyridyl]-[4-(2,2,2-trifluoroethylamino)-7H-pyrrolo[2,3-d]pyrimidin-5-yl]methanone] | < 0.1 | < 5 | > 10 | < 0.1 | < 0.01 | < 5
9 | CNc1ncnc2[nH]cc(C(=O)c3ccc(Nc4ccc(C)nc4)nc3F)c12 [Compound P-4115, [2-fluoro-6-[(6-methyl-3-pyridyl)amino]-3-pyridyl]-[4-(methylamino)-7H-pyrrolo[2,3-d]pyrimidin-5-yl]methanone] | < 0.1 | < 5 | > 10 | < 0.1 | < 0.01 | < 5
10 | CCc1ccc(Nc2ccc(C(=O)c3c[nH]c4ncnc(NC5CCOCC5)c34)c(F)n2)cn1 [Compound P-4116, [6-[(6-ethyl-3-pyridyl)amino]-2-fluoro-3-pyridyl]-[4-(tetrahydropyran-4-ylamino)-7H-pyrrolo[2,3-d]pyrimidin-5-yl]methanone] | < 0.01 | > 10 | > 10 | < 0.01 | < 0.01 | > 10
11 | CCc1ccc(Nc2ccc(C(=O)c3c[nH]c4ncnc(NC(C)C)c34)c(F)n2)cn1 [Compound P-4117, [6-[(6-ethyl-3-pyridyl)amino]-2-fluoro-3-pyridyl]-[4-(isopropylamino)-7H-pyrrolo[2,3-d]pyrimidin-5-yl]methanone] | < 0.01 | 5 to 10 | > 10 | < 0.01 | < 0.01 | > 10
12 | CCc1ccc(Nc2ccc(C(=O)c3c[nH]c4ncnc(NCC5CC5)c34)c(F)n2)cn1 [Compound P-4118, [4-(cyclopropylmethylamino)-7H-pyrrolo[2,3-d]pyrimidin-5-yl]-[6-[(6-ethyl-3-pyridyl)amino]-2-fluoro-3-pyridyl]methanone] | < 0.01 | > 10 | > 10 | < 0.01 | < 0.01 | > 10
13 | CCc1ccc(Nc2ccc(C(=O)c3c[nH]c4ncnc(NCCOC)c34)c(F)n2)cn1 [Compound P-4119, [6-[(6-ethyl-3-pyridyl)amino]-2-fluoro-3-pyridyl]-[4-(2-methoxyethylamino)-7H-pyrrolo[2,3-d]pyrimidin-5-yl]methanone] | < 0.01 | > 10 | > 10 | < 0.01 | < 0.01 | > 10
14 | CCc1ccc(Nc2ccc(C(=O)c3c[nH]c4ncnc(NCC(F)(F)F)c34)c(F)n2)cn1 [Compound P-4120, [6-[(6-ethyl-3-pyridyl)amino]-2-fluoro-3-pyridyl]-[4-(2,2,2-trifluoroethylamino)-7H-pyrrolo[2,3-d]pyrimidin-5-yl]methanone] | < 0.01 | < 5 | > 10 | < 0.01 | < 0.01 | < 5
15 | CCc1ccc(Nc2ccc(C(=O)c3c[nH]c4ncnc(NCC(C)C)c34)c(F)n2)cn1 [Compound P-4121, [6-[(6-ethyl-3-pyridyl)amino]-2-fluoro-3-pyridyl]-[4-(isobutylamino)-7H-pyrrolo[2,3-d]pyrimidin-5-yl]methanone] | < 0.01 | > 10 | > 10 | < 0.01 | < 0.01 | 5 to 10
16 | CCCNc1ncnc2[nH]cc(C(=O)c3ccc(Nc4ccc(CC)nc4)nc3F)c12 [Compound P-4122, [6-[(6-ethyl-3-pyridyl)amino]-2-fluoro-3-pyridyl]-[4-(propylamino)-7H-pyrrolo[2,3-d]pyrimidin-5-yl]methanone] | < 0.01 | 5 to 10 | > 10 | < 0.01 | < 0.01 | > 10
17 | CCNc1ncnc2[nH]cc(C(=O)c3ccc(Nc4ccc(CC)nc4)nc3F)c12 [Compound P-4123, [4-(ethylamino)-7H-pyrrolo[2,3-d]pyrimidin-5-yl]-[6-[(6-ethyl-3-pyridyl)amino]-2-fluoro-3-pyridyl]methanone] | < 0.01 | > 10 | > 10 | < 0.01 | < 0.01 | > 10
18 | CCc1ccc(Nc2ccc(C(=O)c3c[nH]c4ncnc(NC)c34)c(F)n2)cn1 [Compound P-4124, [6-[(6-ethyl-3-pyridyl)amino]-2-fluoro-3-pyridyl]-[4-(methylamino)-7H-pyrrolo[2,3-d]pyrimidin-5-yl]methanone] | < 0.01 | < 5 | > 10 | < 0.01 | < 0.01 | < 5
19 | CCc1ccc(Nc2ccc(C(=O)c3c[nH]c4ncnc(NC5CC5)c34)c(F)n2)cn1 [Compound P-4125, [4-(cyclopropylamino)-7H-pyrrolo[2,3-d]pyrimidin-5-yl]-[6-[(6-ethyl-3-pyridyl)amino]-2-fluoro-3-pyridyl]methanone] | < 0.01 | > 10 | > 10 | < 0.01 | < 0.01 | > 10
20 | COc1ccc(Nc2ccc(C(=O)c3c[nH]c4ncnc(NC5CC5)c34)c(F)n2)cn1 [Compound P-4126, [4-(cyclopropylamino)-7H-pyrrolo[2,3-d]pyrimidin-5-yl]-[2-fluoro-6-[(6-methoxy-3-pyridyl)amino]-3-pyridyl]methanone] | < 0.01 | > 10 | < 10 | < 0.01 | < 0.01 | > 10
